Target: T1, human glucocorticoid receptor (hGR) (Homo sapiens, UniProt P04150)
T1 construct: made in house; host or cells: Sf21 insect cells infected with baculovirus hGR, OR IM9 lymphoblast cell line (endogenous hGR)
T1 sequence (P04150 1-777): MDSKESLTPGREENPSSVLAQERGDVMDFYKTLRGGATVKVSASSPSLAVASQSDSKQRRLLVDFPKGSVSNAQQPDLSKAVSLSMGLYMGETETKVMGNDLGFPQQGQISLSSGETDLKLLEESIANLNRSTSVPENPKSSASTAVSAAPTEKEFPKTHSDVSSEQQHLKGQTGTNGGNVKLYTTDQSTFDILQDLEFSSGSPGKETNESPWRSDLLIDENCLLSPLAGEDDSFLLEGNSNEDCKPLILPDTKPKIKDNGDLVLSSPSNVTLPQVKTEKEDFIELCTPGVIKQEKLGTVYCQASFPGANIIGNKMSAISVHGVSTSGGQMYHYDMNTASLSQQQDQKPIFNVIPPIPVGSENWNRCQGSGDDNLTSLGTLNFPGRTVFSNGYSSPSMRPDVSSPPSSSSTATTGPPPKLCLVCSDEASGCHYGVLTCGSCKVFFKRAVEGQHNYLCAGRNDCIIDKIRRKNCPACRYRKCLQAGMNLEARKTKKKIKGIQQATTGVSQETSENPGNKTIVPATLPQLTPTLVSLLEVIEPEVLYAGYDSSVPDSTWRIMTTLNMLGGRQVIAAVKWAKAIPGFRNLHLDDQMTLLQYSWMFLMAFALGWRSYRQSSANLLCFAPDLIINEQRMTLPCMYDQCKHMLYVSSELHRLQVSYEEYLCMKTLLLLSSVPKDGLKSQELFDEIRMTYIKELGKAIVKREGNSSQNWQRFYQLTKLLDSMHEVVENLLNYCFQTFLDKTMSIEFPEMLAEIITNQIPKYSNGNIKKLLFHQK
Assay: human glucocorticoid receptor binding assay (displacement of 3(H) Triamcinolone acetonide)
Settings: not given
Method: A human glucocorticoid receptor binding assay was carried out to determine the extent to which the compounds of this invention have the ability to bind to human glucocorticoid receptors. This binding ability may be indicative of the antiinflammatory activity of the compound. The test was carried out as follows.
Human glucocorticoid receptors were prepared from either insect cells (Sf21) infected with baculovirus hGR or from a lymphoblast cell line which expresses high levels of endogenous hGR (IM9). The receptor binding reactions, with or without test compounds, were set up in 96-well microtiter plates which were previously siliconized with SIGMACOTE™, a chlorinated organopolysiloxane in heptane. The binding components, 3(H) Triamcinolone acetonide (TAA), glycerol/molybdate-containing buffer and unlabeled compounds were added to the wells using a combination of BIOMEK laboratory automation system and repeat pipettes. After four hours of incubation, the samples were precipitated with polyethylene glycol and filtered through Whatman GF/F paper using a TOMTEK cell harvester. The filter mate with 96 samples were bound to a solid-phase scintillant and directly counted in a BETAPLATE counter. […] The activity of test compounds to displace 3(H) TAA binding to hGR is also expressed as percent inhibition at 1 μM.

SMILES	IC50 [µM]
O=C(Cc1ccccc1Cl)NCC(c1ccccc1)C(c1ccc(F)cc1)c1ccc(F)cc1 (stereo not shown) [Compound 16]	0.045
COc1ccccc1CCC(=O)NCC(c1ccccc1)C(c1ccc(F)cc1)c1ccc(F)cc1 (stereo not shown) [Compound 23]	0.022

Same assay, conditions: concentration not given

SMILES	hGR, value given as % [%]
COc1ccccc1CC(=O)NCC(c1ccccc1)C(c1ccccc1)c1ccccc1 (stereo not shown) [Compound 5]	62
O=C(Cc1ccccc1Cl)NCC(c1ccccc1)C1c2ccccc2-c2ccccc21 (stereo not shown) [Compound 68]	46
O=C(Cc1ccccc1C(F)(F)F)NCC(c1ccccc1)C1c2ccccc2-c2ccccc21 (stereo not shown) [Compound 69]	15
Cc1ccc(C(=O)NCC(c2ccccc2)C2c3ccccc3-c3ccccc32)s1 (stereo not shown) [Compound 72]	33

Tested on: oxazolone-induced ear swelling (MOCH) in albino male CD-1 mice
Assay: mouse oxazolone-induced contact hypersensitization (MOCH) ear swelling
Format: in vivo
Design: % Inhibition MOCH: concentration or dose not given beside the values
Settings: mouse, in vivo
Method: Several triphenylpropanamide compounds of this invention, having varying affinities for the human glucocorticoid receptor, were tested for topical antiinflammatory activity in mouse ear inflammation models. […] Compounds having receptor affinities closer to hydrocortisone were as nearly active as hydrocortisone in suppressing mouse oxazolone-induced contact hypersensitization (MOCH) and phorbol ester-induced ear edema. The in vivo studies of this example were conducted as follows.
In determining the MOCH using the compounds of this invention, albino male CD-1 mice, 7-9 weeks old were induced on the shaved abdomen with 50 μl of 3% oxazolone in acetone/corn oil (Day 0). On Day 5, a 20 μl volume of 2% oxazolone in acetone was applied to the dorsal left ear of the mouse . Compounds (made in ethanol/propylene glycol, 70:30) were applied to the left ear in 20 μl volume, one hour after oxazolone challenge. The right ear was not treated. The mice were sacrificed by carbon dioxide inhalation 24 hours after oxazolone challenge, the left and right ears were removed and a 7 mm biopsy was removed from each ear and weighed. The difference in biopsy weights between the right and left ears was calculated. Antiinflammatory effects of compounds were evident as an inhibition of the increase in ear weight.

SMILES	% Inhibition MOCH [%]
O=C(Cc1ccc(Cl)cc1Cl)NCC(c1ccc2c(c1)OCO2)C(c1ccccc1)c1ccccc1 (stereo not shown) [Compound 112]	36
O=C(Cc1ccc(Cl)c(Cl)c1)NCC(c1ccc2c(c1)OCO2)C(c1ccccc1)c1ccccc1 (stereo not shown) [Compound 113]	31
O=C(CSc1ccccc1)NCC(c1ccc2c(c1)OCO2)C(c1ccccc1)c1ccccc1 (stereo not shown) [Compound 114]	41
O=C(NCC(c1ccc2c(c1)OCO2)C(c1ccccc1)c1ccccc1)c1ccsc1 (stereo not shown) [Compound 115]	28
O=C(NCC(c1ccc2c(c1)OCO2)C(c1ccccc1)c1ccccc1)c1cccs1 (stereo not shown) [Compound 116]	62
O=C(NCC(c1ccc2c(c1)OCO2)C(c1ccccc1)c1ccccc1)c1ccccc1 (stereo not shown) [Compound 117]	28
COc1ccccc1C(=O)NCC(c1ccc2c(c1)OCO2)C(c1ccccc1)c1ccccc1 (stereo not shown) [Compound 118]	38
O=C(NCC(c1ccc2c(c1)OCO2)C(c1ccccc1)c1ccccc1)c1cc2ccccc2[nH]1 (stereo not shown) [Compound 119]	31
O=C(NCC(c1ccc2c(c1)OCO2)C(c1ccccc1)c1ccccc1)c1cc(C(F)(F)F)cc(C(F)(F)F)c1 (stereo not shown) [Compound 120]	27
O=C(NCC(c1ccc2c(c1)OCO2)C(c1ccccc1)c1ccccc1)c1cccc([N+](=O)[O-])c1 (stereo not shown) [Compound 121]	10
Cc1ccc(C(=O)NCC(c2ccc3c(c2)OCO3)C(c2ccccc2)c2ccccc2)cc1[N+](=O)[O-] (stereo not shown) [Compound 122]	33
N#Cc1cccc(C(=O)NCC(c2ccc3c(c2)OCO3)C(c2ccccc2)c2ccccc2)c1 (stereo not shown) [Compound 123]	51
O=C(CCc1ccccc1)NCC(c1ccc2c(c1)OCO2)C(c1ccccc1)c1ccccc1 (stereo not shown) [Compound 124]	35
CC(C)(C)c1ccc(C(=O)NCC(c2ccc3c(c2)OCO3)C(c2ccccc2)c2ccccc2)cc1 (stereo not shown) [Compound 125]	31
Cc1ccc(C(=O)NCC(c2ccc3c(c2)OCO3)C(c2ccccc2)c2ccccc2)cc1 (stereo not shown) [Compound 126]	46
O=C(NCC(c1ccc2c(c1)OCO2)C(c1ccccc1)c1ccccc1)c1ccc(F)cc1F (stereo not shown) [Compound 127]	61
O=C(NCC(c1ccc2c(c1)OCO2)C(c1ccccc1)c1ccccc1)c1ccc(F)cc1 (stereo not shown) [Compound 128]	54
O=C(NCC(c1ccc2c(c1)OCO2)C(c1ccccc1)c1ccccc1)c1ccccc1Cl (stereo not shown) [Compound 129]	41
O=C(NCC(c1ccc2c(c1)OCO2)C(c1ccccc1)c1ccccc1)c1ccc(Cl)cc1 (stereo not shown) [Compound 130]	37

SMILES	% Inhibition MOCH [%]
O=C(NCC(c1ccc2c(c1)OCO2)C(c1ccccc1)c1ccccc1)c1cc(Cl)cc(Cl)c1 (stereo not shown) [Compound 131]	18
Cc1ccccc1C(=O)NCC(c1ccc2c(c1)OCO2)C(c1ccccc1)c1ccccc1 (stereo not shown) [Compound 133]	46
O=C(Cc1ccc(-c2ccccc2)cc1)NCC(c1ccc2c(c1)OCO2)C(c1ccccc1)c1ccccc1 (stereo not shown) [Compound 134]	29
O=C(Cc1cccs1)NCC(c1ccc(C(F)(F)F)cc1)C(c1ccccc1)c1ccccc1 (stereo not shown) [Compound 135]	31
O=C(NCC(c1ccc(C(F)(F)F)cc1)C(c1ccccc1)c1ccccc1)c1cccs1 (stereo not shown) [Compound 136]	38
O=C(NCC(c1ccc(C(F)(F)F)cc1)C(c1ccccc1)c1ccccc1)c1ccccc1Cl (stereo not shown) [Compound 137]	45
O=C(Cc1ccc(Cl)c(Cl)c1)NCC(c1ccc(C(F)(F)F)cc1)C(c1ccccc1)c1ccccc1 (stereo not shown) [Compound 138]	33
O=C(NCC(c1ccc(C(F)(F)F)cc1)C(c1ccccc1)c1ccccc1)c1ccc(Cl)cc1Cl (stereo not shown) [Compound 139]	42
Cc1cccc(CC(=O)NCC(c2ccc(C(F)(F)F)cc2)C(c2ccccc2)c2ccccc2)c1 (stereo not shown) [Compound 140]	57
O=C(Cc1ccccc1)NCC(c1ccc(C(F)(F)F)cc1)C(c1ccccc1)c1ccccc1 (stereo not shown) [Compound 141]	66
O=C(Cc1ccccn1)NCC(c1ccc(C(F)(F)F)cc1)C(c1ccccc1)c1ccccc1 (stereo not shown) [Compound 142]	39
CSc1ccc(CC(=O)NCC(c2ccc(C(F)(F)F)cc2)C(c2ccccc2)c2ccccc2)cc1 (stereo not shown) [Compound 143]	19
COc1cc(Cl)ccc1C(=O)NCC(c1ccc(C(F)(F)F)cc1)C(c1ccccc1)c1ccccc1 (stereo not shown) [Compound 144]	33
O=C(Cc1cc2cc(Cl)ccc2s1)NCC(c1ccc(C(F)(F)F)cc1)C(c1ccccc1)c1ccccc1 (stereo not shown) [Compound 145]	54
O=C(Cc1ccccc1Cl)NCC(c1ccc(C(F)(F)F)cc1)C(c1ccccc1)c1ccccc1 (stereo not shown) [Compound 146]	39
O=C(Cc1ccc(F)cc1F)NCC(c1ccc(C(F)(F)F)cc1)C(c1ccccc1)c1ccccc1 (stereo not shown) [Compound 147]	55
COc1ccccc1CC(=O)NCC(c1ccc(C(F)(F)F)cc1)C(c1ccccc1)c1ccccc1 (stereo not shown) [Compound 148]	42
COc1cc(CC(=O)NCC(c2ccc(C(F)(F)F)cc2)C(c2ccccc2)c2ccccc2)cc(OC)c1 (stereo not shown) [Compound 149]	42

Same assay, conditions: topical to mouse ear, 1 mg, one hour after oxazolone challenge, ear biopsy weight at 24 hours

SMILES	Oxazolone Ear Swelling (MOCH) % inhibition vs. Vehicle at 1 mg [%]
COc1ccccc1CC(=O)NCC(c1ccccc1)C(c1ccccc1)c1ccccc1 (stereo not shown) [Compound 5]	13
O=C(Cc1ccccc1Cl)NCC(c1ccccc1)C1c2ccccc2-c2ccccc21 (stereo not shown) [Compound 68]	28
O=C(Cc1ccccc1C(F)(F)F)NCC(c1ccccc1)C1c2ccccc2-c2ccccc21 (stereo not shown) [Compound 69]	43
Cc1ccc(C(=O)NCC(c2ccccc2)C2c3ccccc3-c3ccccc32)s1 (stereo not shown) [Compound 72]	50

Same assay, conditions: topical, mouse ear

SMILES	topical antiinflammatory activity in the oxazolone model (in words)
O=C(Cc1ccccc1Cl)NCC(c1ccccc1)C(c1ccc(F)cc1)c1ccc(F)cc1 (stereo not shown) [Compound 16]	moderate topical activity
COc1ccccc1CCC(=O)NCC(c1ccccc1)C(c1ccc(F)cc1)c1ccc(F)cc1 (stereo not shown) [Compound 23]	moderate topical activity

From patent US6509369B2, “Anti-inflammatory compounds” (Ortho-McNeil Pharmaceutical, Inc., priority 1997, dated 2003)
